# Measured values reported in publication PMC11434749, “In Vitro Interaction of Binuclear Copper Complexes with Liver Drug-Metabolizing Cytochromes P450” (Pharmaceuticals, 2024).
# How the values were obtained:
# CYP2C9 = molecular target: T1, CYP2C9 (Homo sapiens, UniProt P11712); experiment: Inhibition of CYP2C9 activity (diclofenac 4′-hydroxylation) in human liver microsomes; format: in vitro ADME; conditions: HLM, diclofenac 16 µmol·L^−1, preincubation 30 min at 37 °C, Mean ± S.D.
# T1 construct: Pooled human liver microsomes were obtained from Biopredic (Rennes, France); tissue Biopredic (Rennes, France); host or cells: pooled human liver microsomes, seventeen donors
# Protocol: (§1) The following enzyme assays were performed to determine the activities of specific CYP enzymes: CYP1A2, 7-ethoxyresorufin O-deethylation; CYP2A6, coumarin 7-hydroxylation; CYP2B6, 7-ethoxy-4-(trifluoromethyl) coumarin (EFC) O-deethylation; CYP2C8 paclitaxel 6α-hydroxylation; CYP2C9, diclofenac 4′-hydroxylation; CYP2C19, diazepam N-desmethylation; CYP2D6, bufuralol 1′-hydroxylation; CYP2E1, chlorzoxazone 6-hydroxylation; and CYP3A4/5, testosterone 6β-hydroxylation. […]
# (§2) For the determination of metabolites formed from specific substrates, a Prominence LC-20A HPLC system (Shimadzu, Kyoto, Japan) with UV detection or fluorescence detection was used (see Table 2). […]
# (§3) Initially, for each enzyme assay, a preliminary experiment was carried out to determine Km and Vmax to obtain the appropriate concentration of the specific substrates for the inhibition experiments (the substrate concentration was chosen in the range corresponding to the value of the Km for each particular reaction). Data were analyzed using the Sigma plot software, as mentioned above, with spectral studies. […] In all cases, the inhibition of individual CYP activities was evaluated by plotting the respective remaining activity against the inhibitor concentration.
# E. coli = system: E. coli; set-up: method as in doi:10.1016/j.ica.2022.121273; conditions: Gram-negative; cited from earlier work
# E. faecalis = system: E. faecalis; set-up: method as in doi:10.1016/j.ica.2022.121273; conditions: Gram-positive; cited from earlier work
# CYP2D6 = molecular target: T2, CYP2D6 (Homo sapiens, UniProt P10635); experiment: Inhibition of CYP2D6 activity (bufuralol 1′-hydroxylation) in human liver microsomes; format: in vitro ADME; conditions: HLM, bufuralol 15 µmol·L^−1, preincubation 30 min at 37 °C, Mean ± S.D.
# T2 construct: Pooled human liver microsomes were obtained from Biopredic (Rennes, France); tissue Biopredic (Rennes, France); host or cells: pooled human liver microsomes, seventeen donors
# Protocol: as §1, §2, §3
# CYP3A4 = experiment: Inhibition of CYP3A4 activity (testosterone 6β-hydroxylation) in human liver microsomes; format: in vitro ADME; conditions: HLM, testosterone 100 µmol·L^−1, preincubation 30 min at 37 °C, Mean ± S.D.
# Protocol: as §1, §2, §3
# CYP2E1 = molecular target: T3, CYP2E1 (Homo sapiens, UniProt P05181); experiment: Inhibition of CYP2E1 activity (chlorzoxazone 6-hydroxylation) in human liver microsomes; format: in vitro ADME; conditions: HLM, chlorzoxazone 30 µmol·L^−1, preincubation 30 min at 37 °C, Mean ± S.D.
# T3 construct: Pooled human liver microsomes were obtained from Biopredic (Rennes, France); tissue Biopredic (Rennes, France); host or cells: pooled human liver microsomes, seventeen donors
# Protocol: as §1, §2, §3
# P. aeruginosa = system: P. aeruginosa; set-up: method as in doi:10.1016/j.ica.2022.121273; conditions: Gram-negative; cited from earlier work
# CYP2C19 = molecular target: T4, CYP2C19 (Homo sapiens, UniProt P33261); experiment: Inhibition of CYP2C19 activity (diazepam N-desmethylation) in human liver microsomes; format: in vitro ADME; conditions: HLM, diazepam 150 µmol·L^−1, preincubation 30 min at 37 °C, Mean ± S.D.
# T4 construct: Pooled human liver microsomes were obtained from Biopredic (Rennes, France); tissue Biopredic (Rennes, France); host or cells: pooled human liver microsomes, seventeen donors
# Protocol: The following enzyme assays were performed to determine the activities of specific CYP enzymes: CYP1A2, 7-ethoxyresorufin O-deethylation; CYP2A6, coumarin 7-hydroxylation; CYP2B6, 7-ethoxy-4-(trifluoromethyl) coumarin (EFC) O-deethylation; CYP2C8 paclitaxel 6α-hydroxylation; CYP2C9, diclofenac 4′-hydroxylation; CYP2C19, diazepam N-desmethylation; CYP2D6, bufuralol 1′-hydroxylation; CYP2E1, chlorzoxazone 6-hydroxylation; and CYP3A4/5, testosterone 6β-hydroxylation.
# The incubation mixtures contained 100 mmol·L^−1 potassium phosphate buffer (pH 7.4), an NADPH-generating system (0.8 mmol·L^−1 NADP^+, 5.8 mmol·L^−1 isocitrate, 0.3 unit/mL of isocitrate dehydrogenase, and 8 mmol·L^−1 MgCl2), HLM, and an individual probe substrate.
# For the determination of metabolites formed from specific substrates, a Prominence LC-20A HPLC system (Shimadzu, Kyoto, Japan) with UV detection or fluorescence detection was used (see Table 2). As a rule, reversed-phase chromatography was applied with Merck (Darmstadt, Germany) LiChroCART 250 × 4 mm (i.d.) cartridges packed with a LiChrospher RP-18 silica gel (5 µm particle size) with C-18 reversed-phase properties; a 4 × 4 mm (i.d.) guard column was also used. For the composition of the mobile phase in the respective analyses, see the original reference.
# Initially, for each enzyme assay, a preliminary experiment was carried out to determine Km and Vmax to obtain the appropriate concentration of the specific substrates for the inhibition experiments (the substrate concentration was chosen in the range corresponding to the value of the Km for each particular reaction). Data were analyzed using the Sigma plot software, as mentioned above, with spectral studies. Inhibition experiments were performed with a concentration range of the tested complexes from 0.78 to 50 µmol·L^−1. The concentration range used here is in accordance with the MIC (see above) and is adequate. The experimental conditions were the same as for the determination of individual CYP activities (Table 2); the assays were performed in duplicates, with individual values differing by less than 20%. Preincubation of the reaction mixtures with the tested complexes for 30 min at 37 °C was carried out in all assays. In all cases, the inhibition of individual CYP activities was evaluated by plotting the respective remaining activity against the inhibitor concentration.
# CYP2B6 = molecular target: T5, CYP2B6 (Homo sapiens, UniProt P20813); experiment: Inhibition of CYP2B6 activity (EFC O-deethylation) in human liver microsomes; format: in vitro ADME; conditions: HLM, EFC 15 µmol·L^−1, preincubation 30 min at 37 °C, Mean ± S.D.
# T5 construct: Pooled human liver microsomes were obtained from Biopredic (Rennes, France); tissue Biopredic (Rennes, France); host or cells: pooled human liver microsomes, seventeen donors
# T5 sequence (P20813 1-491): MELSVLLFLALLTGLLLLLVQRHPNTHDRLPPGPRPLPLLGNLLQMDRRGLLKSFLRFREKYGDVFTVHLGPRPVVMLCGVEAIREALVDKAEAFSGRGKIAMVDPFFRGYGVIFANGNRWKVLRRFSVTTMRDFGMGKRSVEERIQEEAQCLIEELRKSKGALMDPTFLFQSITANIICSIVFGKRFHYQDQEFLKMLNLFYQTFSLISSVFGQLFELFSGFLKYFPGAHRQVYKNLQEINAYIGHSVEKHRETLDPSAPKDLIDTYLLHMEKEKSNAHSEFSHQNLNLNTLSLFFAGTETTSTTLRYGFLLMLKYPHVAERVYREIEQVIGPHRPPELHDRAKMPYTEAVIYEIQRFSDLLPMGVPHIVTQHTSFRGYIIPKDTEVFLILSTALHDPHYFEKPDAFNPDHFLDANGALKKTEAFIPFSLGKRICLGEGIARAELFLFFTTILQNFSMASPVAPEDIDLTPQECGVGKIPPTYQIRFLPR
# Protocol: as §1, §2, §3
# CYP1A2 = molecular target: T6, CYP1A2 (Homo sapiens, UniProt P05177); experiment: Inhibition of CYP1A2 activity (7-ethoxyresorufin O-deethylation) in human liver microsomes; format: in vitro ADME; conditions: HLM, 7-ethoxyresorufin 1.3 µmol·L^−1, preincubation 30 min at 37 °C, Mean ± S.D.
# T6 construct: Pooled human liver microsomes were obtained from Biopredic (Rennes, France); tissue Biopredic (Rennes, France); host or cells: pooled human liver microsomes, seventeen donors
# T6 sequence (P05177 1-516): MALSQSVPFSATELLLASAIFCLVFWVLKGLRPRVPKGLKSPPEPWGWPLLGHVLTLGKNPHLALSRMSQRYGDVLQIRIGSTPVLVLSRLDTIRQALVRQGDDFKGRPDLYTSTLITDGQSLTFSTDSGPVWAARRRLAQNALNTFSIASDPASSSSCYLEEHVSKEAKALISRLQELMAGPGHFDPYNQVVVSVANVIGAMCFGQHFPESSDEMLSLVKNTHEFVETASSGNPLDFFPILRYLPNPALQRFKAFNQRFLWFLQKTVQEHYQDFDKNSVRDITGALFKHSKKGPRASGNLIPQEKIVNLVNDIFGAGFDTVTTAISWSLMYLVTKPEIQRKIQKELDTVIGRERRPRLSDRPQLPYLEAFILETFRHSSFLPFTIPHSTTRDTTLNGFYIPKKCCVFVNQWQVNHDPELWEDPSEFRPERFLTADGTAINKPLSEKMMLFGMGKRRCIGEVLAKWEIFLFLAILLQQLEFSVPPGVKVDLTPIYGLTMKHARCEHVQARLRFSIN
# Protocol: as §1, §2, §3
# S. aureus = system: S. aureus; set-up: method as in doi:10.1016/j.ica.2022.121273; conditions: Gram-positive; cited from earlier work
# T4 sequence (P33261 whole entry): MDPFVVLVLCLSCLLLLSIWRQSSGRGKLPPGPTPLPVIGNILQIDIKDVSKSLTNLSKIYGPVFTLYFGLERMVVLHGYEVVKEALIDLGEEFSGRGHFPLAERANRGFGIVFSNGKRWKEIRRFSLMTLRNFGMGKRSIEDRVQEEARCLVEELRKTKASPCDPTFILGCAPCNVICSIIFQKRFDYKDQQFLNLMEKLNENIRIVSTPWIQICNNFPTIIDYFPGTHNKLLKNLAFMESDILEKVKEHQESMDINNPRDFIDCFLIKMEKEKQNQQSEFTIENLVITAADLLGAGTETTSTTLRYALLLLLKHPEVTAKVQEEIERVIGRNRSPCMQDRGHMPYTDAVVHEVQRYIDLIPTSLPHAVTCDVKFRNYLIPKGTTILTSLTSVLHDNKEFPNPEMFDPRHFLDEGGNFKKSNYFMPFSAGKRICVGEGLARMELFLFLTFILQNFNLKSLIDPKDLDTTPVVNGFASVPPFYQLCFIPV
# T3 sequence (P05181 whole entry): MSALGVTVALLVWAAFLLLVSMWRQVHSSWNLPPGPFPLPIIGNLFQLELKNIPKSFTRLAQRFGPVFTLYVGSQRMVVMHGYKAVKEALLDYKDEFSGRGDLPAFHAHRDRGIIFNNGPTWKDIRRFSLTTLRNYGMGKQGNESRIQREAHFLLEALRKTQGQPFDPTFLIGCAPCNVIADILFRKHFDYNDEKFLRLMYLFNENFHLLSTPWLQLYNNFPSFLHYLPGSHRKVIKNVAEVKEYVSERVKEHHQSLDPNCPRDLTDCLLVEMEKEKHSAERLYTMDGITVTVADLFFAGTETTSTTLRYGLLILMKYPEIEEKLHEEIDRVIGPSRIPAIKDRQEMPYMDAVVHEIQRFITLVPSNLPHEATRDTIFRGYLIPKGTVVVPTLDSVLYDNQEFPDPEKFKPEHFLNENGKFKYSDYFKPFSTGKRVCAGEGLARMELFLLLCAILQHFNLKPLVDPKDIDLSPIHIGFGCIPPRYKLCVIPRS
# T2 sequence (P10635 whole entry): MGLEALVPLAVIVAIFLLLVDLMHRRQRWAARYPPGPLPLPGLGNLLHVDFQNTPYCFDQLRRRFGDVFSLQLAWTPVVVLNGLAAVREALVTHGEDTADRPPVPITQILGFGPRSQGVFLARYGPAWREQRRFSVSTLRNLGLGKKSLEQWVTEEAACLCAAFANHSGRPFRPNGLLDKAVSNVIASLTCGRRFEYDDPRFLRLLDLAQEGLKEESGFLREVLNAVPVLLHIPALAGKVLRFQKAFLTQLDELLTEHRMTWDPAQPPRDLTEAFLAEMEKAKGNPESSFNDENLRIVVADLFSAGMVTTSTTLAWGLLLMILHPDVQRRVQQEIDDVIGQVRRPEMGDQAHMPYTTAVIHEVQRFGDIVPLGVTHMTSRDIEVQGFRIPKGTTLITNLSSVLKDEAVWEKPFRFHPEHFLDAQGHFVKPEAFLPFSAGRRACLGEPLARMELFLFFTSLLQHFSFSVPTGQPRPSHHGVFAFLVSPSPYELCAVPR
# T1 sequence (P11712 whole entry): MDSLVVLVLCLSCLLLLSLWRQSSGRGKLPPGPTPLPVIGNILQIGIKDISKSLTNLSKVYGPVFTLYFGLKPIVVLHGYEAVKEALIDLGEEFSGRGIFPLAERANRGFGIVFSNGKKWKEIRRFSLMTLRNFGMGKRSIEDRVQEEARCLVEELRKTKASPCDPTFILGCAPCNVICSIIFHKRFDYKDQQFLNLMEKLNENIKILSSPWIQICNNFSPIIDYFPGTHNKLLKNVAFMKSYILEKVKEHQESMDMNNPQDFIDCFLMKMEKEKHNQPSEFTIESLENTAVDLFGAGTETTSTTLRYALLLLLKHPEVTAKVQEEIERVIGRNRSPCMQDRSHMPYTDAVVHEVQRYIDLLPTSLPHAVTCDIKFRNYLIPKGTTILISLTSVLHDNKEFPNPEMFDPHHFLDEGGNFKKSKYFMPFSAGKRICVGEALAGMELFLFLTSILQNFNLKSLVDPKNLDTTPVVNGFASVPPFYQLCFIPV
Compound,IC50 (CYP2C9),MIC E. coli (E. coli),MIC E. faecalis (E. faecalis),IC50 (CYP2D6),IC50 (CYP3A4),IC50 (CYP2E1),MIC P. aeruginosa (P. aeruginosa),IC50 (CYP2C19),IC50 (CYP2C19; listed as complex No. 5),IC50 (CYP2B6),IC50 (CYP1A2),MIC S. aureus (S. aureus),IC50 (CYP2C19; listed as complex No. 6)
"CN(C)CCN(C)CCN(C)C.CN(C)CCN(C)CCN(C)C.O.O.O=C([O-])/C=C/C(=O)[O-].[Cu+2].[Cu+2].[O-][Cl+3]([O-])([O-])[O-].[O-][Cl+3]([O-])([O-])[O-] [Complex No. 5, [Cu2(μ-fu)(pmdien)2(H2O)2](ClO4)2]",12.59 ± 0.06 µM,8.44 mg/L,4.22 mg/L,12.4 ± 0.21 µM,3.72 ± 0.23 µM,12.5 ± 0.18 µM,2.11 mg/L,2.53 ± 0.59 µM,~2.5 µM,24.8 ± 0.33 µM,24.97 ± 0.22 µM,1.05 mg/L,
"CN(C)CCN(C)CCN(C)C.CN(C)CCN(C)CCN(C)C.O.O.O=C([O-])CCSSCCC(=O)[O-].[Cu+2].[Cu+2].[O-][Cl+3]([O-])([O-])[O-].[O-][Cl+3]([O-])([O-])[O-] [Complex No. 6, [Cu2(μ-dtdp)(pmdien)2(H2O)2](ClO4)2]",12.26 ± 0.11 µM,16.88 mg/L,8.44 mg/L,6.33 ± 0.22 µM,3.62 ± 0.27 µM,6.59 ± 0.18 µM,1.05 mg/L,6.43 ± 0.63 µM,,13.3 ± 0.54 µM,25.2 ± 0.29 µM,8.44 mg/L,~6.4 µM
